Source: BindingDB's records for doi:10.1021/jm1006148 (Sri International, 2010)

Target: Neuronal acetylcholine receptor subunit alpha-7 (Rattus norvegicus, UniProt Q05941)
Experiment: Displacement of [3H]epibatidine from alpha7 nAChR in rat brain membranes after 2 hrs

Chain of Neuronal acetylcholine receptor subunit alpha-7 (Q05941 whole entry): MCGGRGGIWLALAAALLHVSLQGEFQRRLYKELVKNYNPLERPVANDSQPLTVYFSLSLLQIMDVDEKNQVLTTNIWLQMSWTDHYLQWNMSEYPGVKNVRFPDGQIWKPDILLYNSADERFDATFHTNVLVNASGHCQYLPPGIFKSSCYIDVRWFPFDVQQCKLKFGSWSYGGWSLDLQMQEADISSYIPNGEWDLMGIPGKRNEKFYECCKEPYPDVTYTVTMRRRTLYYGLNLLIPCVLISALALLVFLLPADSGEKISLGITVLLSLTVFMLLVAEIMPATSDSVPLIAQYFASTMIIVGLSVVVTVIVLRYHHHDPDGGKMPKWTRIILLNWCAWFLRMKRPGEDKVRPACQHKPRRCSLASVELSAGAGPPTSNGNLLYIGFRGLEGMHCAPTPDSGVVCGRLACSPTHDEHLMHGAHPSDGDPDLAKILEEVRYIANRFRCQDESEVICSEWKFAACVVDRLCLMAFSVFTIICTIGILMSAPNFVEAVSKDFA

## CN1C2CCCC1CC(N1C(=O)Cc3ccccc31)C2 (stereo unspecified) [1-(1-(9-methyl-9-azabicyclo[3.3.1]nonan-3-yl)indolin-2-one]
  Ki: > 100 µM
